Test results as given in patent US20210268070A1, “Use of Immunomodulators to Control Infection and Stimulate Healing in Normal and Diabetic Wounds” (priority 2018, published 2021).
“Also recorded” adds a separate entry of the source.

B1: Chemokine (C-C motif) ligand 3 (protein, listed as Homo sapiens)
chain: MQVSTAALAVLLCTMALCNQFSASLAADTPTACCFSYTSRQIPQNFIADYFETSSQCSKPGVIFLTKRSRQVCADPSEEWVQKYVSDLELSA
notes: class 1 immunomodulator

Key:
P. aeruginosa PA103 = assay: Wound model of infection with PA103 in normal (C57BL) mice; assay type: in vivo; details: for infection control against P. aeruginosa PA103 in normal wounds: C57B mice, immunomodulator added locally at time of infection, compared to PBS, FIGS. 3A, 4A, 4B, 6A
Procedure: The implant model of infection in C57B mice was used for 10^6 PA103 (FIG. 2A) or 10^6 USA300 MRSA (FIG. 2C). The wound model of infection was used for 10^6 PA103 in C57BL mice (FIG. 2B) or diabetic db/db mice (FIG. 2D). Infection was carried out at the time of surgery by adding bacteria directly to the surgical sites. Immunomodulators, namely, LPS (10 ng or 100 ng), fMLP (10 ng or 100 ng), CCL3 (1 μg) were added topically at the surgical sites at the time of surgery & infection. GM-CSF (10 μg/kg), tobramycin (Tob at 3.5 mg/kg), and vancomycin (40 mg/kg) were added systemically by i.p. injection 1 h before surgical implantation and infection. Infection levels were determined 24 h following infection (N>4 animals/group; NS=not significant, * p<0.01, ** p<0.001, ***p<0.0001 One-way ANOVA).
(15A) C57BL/6 mice received 40 mg/kg prophylaxis (Sys) vancomycin (Vanc) or 3.5 mg/kg tobramycin (Tobra) by i.p. injection. (15A) 1 h after antibiotic administration, 106 CFU of USA300 was added to implant after insertion into facia (Implant Model). (15B) 1 h after antibiotic administration, 10^6CFU of USA300 or 106CFU PA103 (Pa) were added full-thickness wounds in of C57BL/6 (Wound Model). Infection levels at implant surgical site (Tissue & Implant) or a distant site (Spleen), or wound tissues were assessed 24 h following infection. (N>4 animals/group, * p<0.01, ***p<0.0001, One-way ANOVA).
We assessed these immunomodulators for their ability to control wound and/or implant SS's in normal (C57BL/6) or diabetic (db/db) mice. We acknowledge that diabetic individuals are not as immunocompromised as other immunocompromised patient groups. […] All immunomodulators were added locally at the surgical sites at the time of infection, except GM-CSF (10 μg/kg) which was administered systemically by i.p. injection 1 h prior to surgery per its FDA-approved route of delivery. […] CCL3 and GM-CSF are also tested using the implant model of infection. Here, we tested CCL3 and GM-CSF in the wound model of infection in C57B mice.
Implant surgery and wound surgery and surgical site infection are performed according to the following method. On the day of surgery, all mice are anesthetized by an intraperitoneal injection of a ketamine/xylazine mixture (90 mg/kg ketamine+5 mg/kg xylazine for mice). The back of the animals is shaved using an electric shave and scrubbed with alcohol swabs 3 times, a topical antiseptic solution (Hibiclens; chlorhexidine gluconate) is applied to the skin. The surgical procedures are performed with sterile instruments, sterile surgical gloves, and aseptic techniques as follows. For wound surgical procedure, a sterile biopsy punch (5-7 mm diameter) is used to punch through the full thickness of the back skin below the shoulder blades. Four 5-7 mm skin wounds are made on the back of each mouse. Wounds placed in this area cannot be reached by the animals and therefore are protected from self-licking. For implant surgery, a 4-mm long lateral skin incision is made on the upper back, and the skin is retracted. The space above the muscle is opened using blunt dissection with fine forceps, to create a rostral fascia indentation. Then, immunomodulators at indicated concentrations (in a 20 μL volume) or PBS control are injected into the fascia indentation.

leukocytes = assay: Leukocyte migration (H&E staining) and activation (MPO ELISA) in normal wound; assay type: in vivo, C57B mice; details: for leukocyte migration and neutrophil activation in a normal wound: compared to PBS, FIGS. 10A-10D
From the text: FIGS. 10A-10D illustrate that immunomodulatory treatment enhances leukocyte migration and neutrophil activation in a normal wound. (10A, 10B—CCL3, 10C—LPS, fMLF, 10D—GM-CSF), N=4; Significance determined as compared to PBS *<0.05, **p<0.01, ***p<0.001.
We next examined the impact of CCL3 topical treatment on leukocyte migration by H&E staining, and on leukocyte activation by myeloperoxidase (MPO) measurements by ELISA. (MPO is primarily used as a marker for neutrophil activation but it can also be expressed to lesser extent in macrophages).

inflammatory cytokines = assay: Production of inflammatory cytokines in normal wound; assay type: in vivo, mice
Procedure: FIGS. 7A and 7B illustrate that CCL3 treatment increases the production of inflammatory cytokines in a normal wound. N=4; Significance determined as compared to PBS *<0.05, **p<0.01, ***p<0.001.
FIGS. 8A and 8B illustrate that LPS and fMLP treatment increases the production of inflammatory cytokines in a normal wound. N=4; LPS (10 ng) and fMLP (100 nM) directly added to wounds at the time of infection after wounding. Significance determined as compared to PBS *<0.05, **p<0.01.
Tissue-Tek O.C.T. (Sakura); Lysing Matrix D (MP Biomedicals); Collagenase (Roche Diagnostics), Hematoxylin and eosin (H&E); DNase 1 (Sigma-Aldrich); Hyluronidase, Streptozotocin (Sigma-Aldrich); Trizol (Invitrogen); CD45 antibody (eBioscience, Inc); Ly6C; Ly6G; CD11b; CD3 (BioLegend); CD68; GAPDH (Sigma-Aldrich). Ly6G and CD68 (Abcam); Primer pairs for GAPDH were from Qiagen. Masson's trichrome stain (Sigma-Aldrich); Picrosirius red (Abcam); Fibronectin (Chemicon International); Insulin slow-release capsules (Linplant; LinShin, Toronto, Canada) CCL3 (R&D Systems) fMLP (Sigma-Aldrich); II-1β ELISA (R&D Systems); TNF-α ELISA (R&D Systems).

[1] = LPS (10 ng) and fMLP (100 nM) directly added to wounds at the time of infection after wounding, FIGS. 8A and 8B
[2] = topical CCL3 to C57B wounds, regardless of infection, FIG. 10A, 10B

Row | Molecule | infection control against P. aeruginosa PA103 in normal wounds (P. aeruginosa PA103) | leukocyte migration and neutrophil activation in a normal wound (leukocytes) | production of inflammatory cytokines in a normal wound (inflammatory cytokines; [1]) | controlling PA103 infection, compared with prophylaxis tobramycin (P. aeruginosa PA103; C57B mice wound model, topical CCL3 1 μg, both at 10^3 and 10^6 CFU, tobramycin 3.5 mg/kg i.p., FIG. 2B) | leukocytes' activation in the wound (myeloperoxidase, MPO, by ELISA) (leukocytes; [2]) | leukocytes' migration in the wound (H&E staining) (leukocytes; [2]) | production of inflammatory cytokines in a normal wound (inflammatory cytokines; CCL3 treatment, compared to PBS, FIGS. 7A and 7B)
1 | CSCC[C@H](NC=O)C(=O)N[C@@H](CC(C)C)C(=O)N[C@@H](Cc1ccccc1)C(=O)O [fMLP, N-Formylmethionyl-leucyl-phenylalanine] | enhance; also recorded: significantly improved | enhances | increases |  |  |  | 
2 | lipopolysaccharide [LPS] | enhance; also recorded: significantly improved | enhances | increases |  |  |  | 
3 | B1 | enhances; also recorded: effective | enhances |  | as effective | significant increases | significant increases | increases
